# Patent US20060148730A1, “Method of treating tuberculosis” (priority 2003, published 2006)
# Tested on: M. tuberculosis H37Rv
# Assay: MIC vs. M. tuberculosis H37Rv, microplate Alamar Blue assay (MABA)
# Format: cell-based
# Conditions: Table 3; parallel-synthesis carbazate library products, SPE purified; read-out: MIC
row,Compound,MIC [µM]
1,CC[C@H]1OC(=O)[C@H](C)[C@@H](O[C@H]2CC(C)(OC)[C@@H](O)[C@H](C)O2)[C@H](C)[C@@H](O[C@@H]2O[C@H](C)C[C@H](N(C)C)[C@H]2O)[C@](C)(OC)C[C@@H](C)C(=O)[C@H](C)[C@H]2N(/N=C/c3cnc(-c4ccccc4)nc3C)C(=O)O[C@]12C (some centres unmarked) [E6′],5
2,CC[C@H]1OC(=O)[C@H](C)[C@@H](O[C@H]2CC(C)(OC)[C@@H](O)[C@H](C)O2)[C@H](C)[C@@H](O[C@@H]2O[C@H](C)C[C@H](N(C)C)[C@H]2O)[C@](C)(OC)C[C@@H](C)C(=O)[C@H](C)[C@H]2N(NCc3[nH]ncc3Br)C(=O)O[C@]12C (some centres unmarked) [D1′],23
3,CC[C@H]1OC(=O)[C@H](C)[C@@H](O[C@H]2CC(C)(OC)[C@@H](O)[C@H](C)O2)[C@H](C)[C@@H](O[C@@H]2O[C@H](C)C[C@H](N(C)C)[C@H]2O)[C@](C)(OC)C[C@@H](C)C(=O)[C@H](C)[C@H]2N(NCc3csc(-c4ccccc4)n3)C(=O)O[C@]12C (some centres unmarked) [F9′],12.6
4,CC[C@H]1OC(=O)[C@H](C)[C@@H](O[C@H]2CC(C)(OC)[C@@H](O)[C@H](C)O2)[C@H](C)[C@@H](O[C@@H]2O[C@H](C)C[C@H](N(C)C)[C@H]2O)[C@](C)(OC)C[C@@H](C)C(=O)[C@H](C)[C@H]2N(NCc3c(Sc4ccc(Cl)cc4)nc4sccn34)C(=O)O[C@]12C (some centres unmarked) [H11′],35.4
5,CC[C@H]1OC(=O)[C@H](C)[C@@H](O[C@H]2CC(C)(OC)[C@@H](O)[C@H](C)O2)[C@H](C)[C@@H](O[C@@H]2O[C@H](C)C[C@H](N(C)C)[C@H]2O)[C@](C)(OC)C[C@@H](C)C(=O)[C@H](C)[C@H]2N(NCC3CSN=N3)C(=O)O[C@]12C (some centres unmarked) [G10′],>16
6,CC[C@H]1OC(=O)[C@H](C)[C@@H](O[C@H]2CC(C)(OC)[C@@H](O)[C@H](C)O2)[C@H](C)[C@@H](O[C@@H]2O[C@H](C)C[C@H](N(C)C)[C@H]2O)[C@](C)(OC)C[C@@H](C)C(=O)[C@H](C)[C@H]2N(NCc3ccc(N4CCC(c5ccccc5OC)CC4)c([N+](=O)[O-])c3)C(=O)O[C@]12C (some centres unmarked) [G12′],19
7,CC[C@H]1OC(=O)[C@H](C)[C@@H](O[C@H]2CC(C)(OC)[C@@H](O)[C@H](C)O2)[C@H](C)[C@@H](O[C@@H]2O[C@H](C)C[C@H](N(C)C)[C@H]2O)[C@](C)(OC)C[C@@H](C)C(=O)[C@H](C)[C@H]2N(NCc3cccnc3)C(=O)O[C@]12C (some centres unmarked) [D9′],>15
8,CC[C@H]1OC(=O)[C@H](C)[C@@H](O[C@H]2CC(C)(OC)[C@@H](O)[C@H](C)O2)[C@H](C)[C@@H](O[C@@H]2O[C@H](C)C[C@H](N(C)C)[C@H]2O)[C@](C)(OC)C[C@@H](C)C(=O)[C@H](C)[C@H]2N(NCc3cccn3CCC#N)C(=O)O[C@]12C (some centres unmarked) [E10′],20
9,CC[C@H]1OC(=O)[C@H](C)[C@@H](O[C@H]2CC(C)(OC)[C@@H](O)[C@H](C)O2)[C@H](C)[C@@H](O[C@@H]2O[C@H](C)C[C@H](N(C)C)[C@H]2O)[C@](C)(OC)C[C@@H](C)C(=O)[C@H](C)[C@H]2N(NCc3cccn3-c3ccc(C(F)(F)F)cc3)C(=O)O[C@]12C (some centres unmarked) [F1′],17.6
10,CC[C@H]1OC(=O)[C@H](C)[C@@H](O[C@H]2CC(C)(OC)[C@@H](O)[C@H](C)O2)[C@H](C)[C@@H](O[C@@H]2O[C@H](C)C[C@H](N(C)C)[C@H]2O)[C@](C)(OC)C[C@@H](C)C(=O)[C@H](C)[C@H]2N(NCc3ccc([N+](=O)[O-])o3)C(=O)O[C@]12C (some centres unmarked) [A8′],>9
11,CC[C@H]1OC(=O)[C@H](C)[C@@H](O[C@H]2CC(C)(OC)[C@@H](O)[C@H](C)O2)[C@H](C)[C@@H](O[C@@H]2O[C@H](C)C[C@H](N(C)C)[C@H]2O)[C@](C)(OC)C[C@@H](C)C(=O)[C@H](C)[C@H]2N(NCc3c(C)[nH]c4ccc([N+](=O)[O-])cc34)C(=O)O[C@]12C (some centres unmarked) [B11′],>22
12,CC[C@H]1OC(=O)[C@H](C)[C@@H](O[C@H]2CC(C)(OC)[C@@H](O)[C@H](C)O2)[C@H](C)[C@@H](O[C@@H]2O[C@H](C)C[C@H](N(C)C)[C@H]2O)[C@](C)(OC)C[C@@H](C)C(=O)[C@H](C)[C@H]2N(NCc3cc(C(=O)OC)c(C)o3)C(=O)O[C@]12C (some centres unmarked) [A12′],>12
13,CC[C@H]1OC(=O)[C@H](C)[C@@H](O[C@H]2CC(C)(OC)[C@@H](O)[C@H](C)O2)[C@H](C)[C@@H](O[C@@H]2O[C@H](C)C[C@H](N(C)C)[C@H]2O)[C@](C)(OC)C[C@@H](C)C(=O)[C@H](C)[C@H]2N(NCc3cn(Cc4ccccc4)c4ccccc34)C(=O)O[C@]12C (some centres unmarked) [C2′],7
14,CC[C@H]1OC(=O)[C@H](C)[C@@H](O[C@H]2CC(C)(OC)[C@@H](O)[C@H](C)O2)[C@H](C)[C@@H](O[C@@H]2O[C@H](C)C[C@H](N(C)C)[C@H]2O)[C@](C)(OC)C[C@@H](C)C(=O)[C@H](C)[C@H]2N(NCc3c[nH]nc3-c3ccc(F)cc3)C(=O)O[C@]12C (some centres unmarked) [D5′],25
15,CC[C@H]1OC(=O)[C@H](C)[C@@H](O[C@H]2CC(C)(OC)[C@@H](O)[C@H](C)O2)[C@H](C)[C@@H](O[C@@H]2O[C@H](C)C[C@H](N(C)C)[C@H]2O)[C@](C)(OC)C[C@@H](C)C(=O)[C@H](C)[C@H]2N(NCc3ccoc3)C(=O)O[C@]12C (some centres unmarked) [A10′],>7
16,CCOC(=O)c1cc(-c2ccc(Cl)cc2)oc1CNN1C(=O)O[C@]2(C)[C@@H](CC)OC(=O)[C@H](C)[C@@H](O[C@H]3CC(C)(OC)[C@@H](O)[C@H](C)O3)[C@H](C)[C@@H](O[C@@H]3O[C@H](C)C[C@H](N(C)C)[C@H]3O)[C@](C)(OC)C[C@@H](C)C(=O)[C@H](C)[C@@H]12 (some centres unmarked) [B1′],>18
17,CC[C@H]1OC(=O)[C@H](C)[C@@H](O[C@H]2CC(C)(OC)[C@@H](O)[C@H](C)O2)[C@H](C)[C@@H](O[C@@H]2O[C@H](C)C[C@H](N(C)C)[C@H]2O)[C@](C)(OC)C[C@@H](C)C(=O)[C@H](C)[C@H]2N(NCc3nc4ccccc4s3)C(=O)O[C@]12C (some centres unmarked) [F7′],16
18,CC[C@H]1OC(=O)[C@H](C)[C@@H](O[C@H]2CC(C)(OC)[C@@H](O)[C@H](C)O2)[C@H](C)[C@@H](O[C@@H]2O[C@H](C)C[C@H](N(C)C)[C@H]2O)[C@](C)(OC)C[C@@H](C)C(=O)[C@H](C)[C@H]2N(NCc3cnccc3NC(=O)C(C)(C)C)C(=O)O[C@]12C (some centres unmarked) [E2′],>27
19,CC[C@H]1OC(=O)[C@H](C)[C@@H](O[C@H]2CC(C)(OC)[C@@H](O)[C@H](C)O2)[C@H](C)[C@@H](O[C@@H]2O[C@H](C)C[C@H](N(C)C)[C@H]2O)[C@](C)(OC)C[C@@H](C)C(=O)[C@H](C)[C@H]2N(NCc3cc4ccccc4s3)C(=O)O[C@]12C (some centres unmarked) [G2′],11

# Same assay, conditions: Table 4; read-out: MIC
row,Compound,MIC [µM]
1,CCC1OC(=O)C(C)C(OC2CC(C)(OC)C(O)C(C)O2)C(C)C(OC2OC(C)CC(N(C)C)C2O)C(C)(OC)CC(C)C(=NOCCC2OCCO2)C(C)C(O)C1(C)O (centres unmarked) [Compound 1GY11],29.5

# Same assay, conditions: Table 5; read-out: MIC
row,Compound,MIC [µM]
1,CCC1OC(=O)C(C)C(OC2CC(C)(OC)C(O)C(C)O2)C(C)C(OC2OC(C)CC(N(C)C)C2O)C(C)(O)CC(C)C(=NN=Cc2cccc(C(F)(F)F)c2)C(C)C(O)C1(C)O (centres unmarked) [Compound 1OK119],16
2,CCC1OC(=O)C(C)C(O)C(C)C(OC2OC(C)CC([N+](C)(C)Cc3ccccc3)C2OCc2ccccc2)C(C)(OC)CC(C)C(=NOCc2ccccc2)C(C)C(O)C1(C)O (centres unmarked) [Compound 2GY11],7.1
3,CCC1OC(=O)C(C)C(OC2CC(C)(OC)C(O)C(C)O2)C(C)C(OC2OC(C)CC(N(C)C)C2O)C(C)(OC)CC(C)C(=NOCC(=O)c2ccc(-c3ccccc3)cc2)C(C)C(O)C1(C)O (centres unmarked) [Compound 1GY53],6.8
